Data as given in PMC10061512 (ACS Omega, 2023).
Values joined by “and” are separate entries in the source; they are usually repeats but may differ in a detail not shown here. Equal values may be shown once.

What was measured:
EeAChE = EeAChE (Electrophorus electricus, UniProt O42275); experiment: AChE inhibition and enzyme kinetics, Ellman assay; type: biochemical, electric eel; settings: IC50 (μM) ± SD EeAChE, Ellman assay
eqBChE = eqBChE (Equus caballus, UniProt P81908); experiment: BChE inhibition and enzyme kinetics, Ellman assay; type: biochemical, equine
eqBChE, sequence (P81908 whole entry): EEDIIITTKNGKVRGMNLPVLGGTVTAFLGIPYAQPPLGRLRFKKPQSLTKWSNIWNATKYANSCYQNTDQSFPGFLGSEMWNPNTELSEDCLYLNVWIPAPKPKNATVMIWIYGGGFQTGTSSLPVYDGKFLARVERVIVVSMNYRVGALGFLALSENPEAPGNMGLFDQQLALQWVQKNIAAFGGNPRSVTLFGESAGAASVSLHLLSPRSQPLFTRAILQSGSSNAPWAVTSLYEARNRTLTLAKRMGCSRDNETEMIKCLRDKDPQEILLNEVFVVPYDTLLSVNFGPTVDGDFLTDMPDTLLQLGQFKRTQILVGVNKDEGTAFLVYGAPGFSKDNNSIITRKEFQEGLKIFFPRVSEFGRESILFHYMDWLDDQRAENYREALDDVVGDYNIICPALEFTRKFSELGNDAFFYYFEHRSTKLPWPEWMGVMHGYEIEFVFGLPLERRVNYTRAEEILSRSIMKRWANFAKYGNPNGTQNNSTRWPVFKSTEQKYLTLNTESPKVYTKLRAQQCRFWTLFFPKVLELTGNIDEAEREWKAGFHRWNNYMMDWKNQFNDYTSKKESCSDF

hBACE-1 = hBACE-1 (Homo sapiens, UniProt P56817); experiment: biochemical
hBACE-1, sequence (P56817 46-501): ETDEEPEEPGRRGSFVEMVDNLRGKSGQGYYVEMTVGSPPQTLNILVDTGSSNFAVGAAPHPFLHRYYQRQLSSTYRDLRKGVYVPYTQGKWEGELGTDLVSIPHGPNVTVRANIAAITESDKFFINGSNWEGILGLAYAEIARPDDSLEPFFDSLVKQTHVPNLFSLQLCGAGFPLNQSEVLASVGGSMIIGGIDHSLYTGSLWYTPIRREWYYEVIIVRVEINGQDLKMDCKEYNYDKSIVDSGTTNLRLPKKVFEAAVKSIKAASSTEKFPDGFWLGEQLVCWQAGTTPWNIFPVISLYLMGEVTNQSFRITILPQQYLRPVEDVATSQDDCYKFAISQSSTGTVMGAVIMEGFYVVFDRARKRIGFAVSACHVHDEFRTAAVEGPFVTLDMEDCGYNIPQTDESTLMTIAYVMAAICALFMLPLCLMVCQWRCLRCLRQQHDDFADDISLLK

amyloid β 1–42 peptide = amyloid β 1–42 peptide (Homo sapiens, UniProt P05067); experiment: Aβ-42 self-aggregation inhibition assay; type: biochemical; settings: read-out: inhibition of self-aggregation of Aβ1–42 monomers
amyloid β 1–42 peptide, sequence (P05067 672-713): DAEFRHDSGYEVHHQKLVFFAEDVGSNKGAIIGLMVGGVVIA

EeAChE, sequence (O42275 24-633): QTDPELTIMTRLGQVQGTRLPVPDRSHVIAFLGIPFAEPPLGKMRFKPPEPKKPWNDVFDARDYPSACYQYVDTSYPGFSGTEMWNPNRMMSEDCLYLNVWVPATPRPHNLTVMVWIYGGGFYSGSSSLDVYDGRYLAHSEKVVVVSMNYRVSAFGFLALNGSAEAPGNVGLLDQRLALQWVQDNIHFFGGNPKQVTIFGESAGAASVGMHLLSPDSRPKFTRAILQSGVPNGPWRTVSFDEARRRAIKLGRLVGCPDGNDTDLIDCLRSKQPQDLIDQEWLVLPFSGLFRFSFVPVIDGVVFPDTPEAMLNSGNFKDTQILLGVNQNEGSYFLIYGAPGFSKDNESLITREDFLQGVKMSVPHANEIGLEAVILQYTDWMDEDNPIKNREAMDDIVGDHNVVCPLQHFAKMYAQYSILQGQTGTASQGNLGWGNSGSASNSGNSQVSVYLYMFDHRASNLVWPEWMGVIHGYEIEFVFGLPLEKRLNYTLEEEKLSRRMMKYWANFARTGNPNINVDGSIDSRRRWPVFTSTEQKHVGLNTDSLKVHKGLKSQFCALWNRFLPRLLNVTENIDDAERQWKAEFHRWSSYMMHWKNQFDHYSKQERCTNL

SMILES	IC50 (EeAChE)	IC50 (eqBChE) [µM]	IC50 (hBACE-1) [µM]	inhibition at 10 µM (amyloid β 1–42 peptide) [%]
O=c1cc(OCc2cn(Cc3ccccc3)nn2)c2ccccc2o1 [8a, 4-((1-Benzyl-1H-1,2,3-triazol-4-yl)methoxy)-2H-chromen-2-one]	151 ± 3.14 µM	212 ± 2.55	72.9 ± 2.4	
O=c1cc(OCc2cn(Cc3ccccc3Cl)nn2)c2ccccc2o1 [8b, 4-((1-(2-Chlorobenzyl)-1H-1,2,3-triazol-4-yl)methoxy)-2H-chromen-2-one]	68.7 ± 0.71 µM	42.2 ± 0.78	186.6 ± 1.21	
O=c1cc(OCc2cn(Cc3cccc(Cl)c3)nn2)c2ccccc2o1 [8c, 4-((1-(3-Chlorobenzyl)-1H-1,2,3-triazol-4-yl)methoxy)-2H-chromen-2-one]	62.6 ± 2.4 µM	61.9 ± 3.66	24.8 ± 1.49	
O=c1cc(OCc2cn(Cc3c(Cl)cccc3Cl)nn2)c2ccccc2o1 [8d, 4-((1-(2,6-Dichlorobenzyl)-1H-1,2,3-triazol-4-yl)methoxy)-2H-chromen-2-one]	59.4 ± 2.71 µM	40.3 ± 0.93	106 ± 1.38	
O=c1cc(OCc2cn(Cc3ccccc3F)nn2)c2ccccc2o1 [8e, 4-((1-(2-Fluorobenzyl)-1H-1,2,3-triazol-4-yl)methoxy)-2H-chromen-2-one]	89.2 ± 1.88 µM	62.3 ± 1.2	111.2 ± 0.63	
O=c1cc(OCc2cn(Cc3cccc(F)c3)nn2)c2ccccc2o1 [8f, 4-((1-(3-Fluorobenzyl)-1H-1,2,3-triazol-4-yl)methoxy)-2H-chromen-2-one]	232.8 ± 2.31 µM	236 ± 3.6	22.3 ± 1.54	
O=c1cc(OCc2cn(Cc3ccc(F)cc3)nn2)c2ccccc2o1 [8g, 4-((1-(4-Fluorobenzyl)-1H-1,2,3-triazol-4-yl)methoxy)-2H-chromen-2-one]	194 ± 2.19 µM	249 ± 3.1	24.2 ± 1.98	
O=c1cc(OCc2cn(Cc3c(F)cccc3F)nn2)c2ccccc2o1 [8h, 4-((1-(2,6-Difluorobenzyl)-1H-1,2,3-triazol-4-yl)methoxy)-2H-chromen-2-one]	73.89 ± 0.63 µM	66.7 ± 1.37	135 ± 1.9	
O=c1cc(OCc2cn(Cc3ccccc3C(F)(F)F)nn2)c2ccccc2o1 [8i, 4-((1-(2-(Trifluoromethyl)benzyl)-1H-1,2,3-triazol-4-yl)methoxy)-2H-chromen-2-one]	4.83 ± 0.11 µM	7.04 ± 0.77	10.2 ± 0.79	
O=c1cc(OCc2cn(Cc3ccc(C(F)(F)F)cc3)nn2)c2ccccc2o1 [8j, 4-((1-(4-(Trifluoromethyl)benzyl)-1H-1,2,3-triazol-4-yl)methoxy)-2H-chromen-2-one]	23.3 ± 2.86 µM	209 ± 2.11	19.5 ± 0.66	
O=c1cc(OCc2cn(Cc3ccccc3OC(F)(F)F)nn2)c2ccccc2o1 [8k, 4-((1-(2-(Trifluoromethoxy)benzyl)-1H-1,2,3-triazol-4-yl)methoxy)-2H-chromen-2-one]	9.13 ± 0.73 µM	9.95 ± 0.89	18 ± 1.59	
O=c1cc(OCc2cn(Cc3ccc(OC(F)(F)F)cc3)nn2)c2ccccc2o1 [8l, 4-((1-(4-(Trifluoromethoxy)benzyl)-1H-1,2,3-triazol-4-yl)methoxy)-2H-chromen-2-one]	45.4 ± 1.4 µM	158 ± 1.98	132.9 ± 1.08	
Cc1ccccc1Cn1cc(COc2cc(=O)oc3ccccc23)nn1 [8m, 4-((1-(2-Methylbenzyl)-1H-1,2,3-triazol-4-yl)methoxy)-2H-chromen-2-one]	210.7 ± 1.83 µM	172 ± 1.98	162 ± 1.85	
COc1cccc(Cn2cc(COc3cc(=O)oc4ccccc34)nn2)c1 [8n, 4-((1-(3-Methoxybenzyl)-1H-1,2,3-triazol-4-yl)methoxy)-2H-chromen-2-one]	11.4 ± 1.16 µM	140 ± 6.25	126 ± 4.18	
COc1cc(Cn2cc(COc3cc(=O)oc4ccccc34)nn2)cc(OC)c1 [8o, 4-((1-(3,5-Dimethoxybenzyl)-1H-1,2,3-triazol-4-yl)methoxy)-2H-chromen-2-one]	2.76 ± 0.04 µM	3.3 ± 0.01	9.79 ± 1.36	
O=c1cc(OCc2cn(Cc3ccc([N+](=O)[O-])cc3)nn2)c2ccccc2o1 [8p, 4-((1-(4-Nitrobenzyl)-1H-1,2,3-triazol-4-yl)methoxy)-2H-chromen-2-one]	200.4 ± 0.85 µM	220 ± 3.04	156 ± 1.09	
COc1cccc(Cn2cc(COc3ccc4ccc(=O)oc4c3C(C)=O)nn2)c1 [10a, 8-Acetyl-7-((1-(3-methoxybenzyl)-1H-1,2,3-triazol-4-yl)methoxy)-2H-chromen-2-one]	8.36 ± 1.29 µM	7.4 ± 0.94	119 ± 2.49	
CC(=O)c1c(OCc2cn(Cc3ccccc3C(F)(F)F)nn2)ccc2ccc(=O)oc12 [10c, 8-Acetyl-7-((1-(2-(trifluoromethyl)benzyl)-1H-1,2,3-triazol-4-yl)methoxy)-2H-chromen-2-one]	173 ± 1.89 µM	44.6 ± 1.84	139 ± 1.47	
CC(=O)c1c(OCc2cn(Cc3ccccc3OC(F)(F)F)nn2)ccc2ccc(=O)oc12 [10d, 8-Acetyl-7-((1-(2-(trifluoromethoxy)benzyl)-1H-1,2,3-triazol-4-yl)methoxy)-2H-chromen-2-one]	139 ± 1.64 µM	170 ± 1.76	142 ± 1.59	

SMILES	IC50 (EeAChE)	IC50 (eqBChE) [µM]	IC50 (hBACE-1) [µM]	inhibition at 10 µM (amyloid β 1–42 peptide) [%]
COc1cccc(Cn2cc(COc3cc4oc(=O)cc(C)c4cc3OCc3cn(Cc4cccc(OC)c4)nn3)nn2)c1 [13a, 6,7-Bis((1-(3-methoxybenzyl)-1H-1,2,3-triazol-4-yl)methoxy)-4-methyl-2H-chromen-2-one]	130.7 ± 0.45 µM	51.7 ± 1.42	129 ± 1.49	
COc1cc(Cn2cc(COc3cc4oc(=O)cc(C)c4cc3OCc3cn(Cc4cc(OC)cc(OC)c4)nn3)nn2)cc(OC)c1 [13b, 6,7-Bis((1-(3,5-dimethoxybenzyl)-1H-1,2,3-triazol-4-yl)methoxy)-4-methyl-2H-chromen-2-one]	168 ± 6.7 µM	4.7 ± 0.67	115 ± 3.86	
Cc1cc(=O)oc2cc(OCc3cn(Cc4ccccc4C(F)(F)F)nn3)c(OCc3cn(Cc4ccccc4C(F)(F)F)nn3)cc12 [13c, 4-Methyl-6,7-bis((1-(2-(trifluoromethyl)benzyl)-1H-1,2,3-triazol-4-yl)methoxy)-2H-chromen-2-one]	154.7 ± 1.42 µM	82.5 ± 1.41	139.4 ± 1	
Cc1cc(=O)oc2cc(OCc3cn(Cc4ccccc4OC(F)(F)F)nn3)c(OCc3cn(Cc4ccccc4OC(F)(F)F)nn3)cc12 [13d, 4-Methyl-6,7-bis((1-(2-(trifluoromethoxy)benzyl)-1H-1,2,3-triazol-4-yl)methoxy)-2H-chromen-2-one]	176 ± 10.2 µM		20.7 ± 0.93	
COc1cccc(Cn2cc(COc3cc4oc(=O)cc(C)c4cc3OC)nn2)c1 [16a, 6-Methoxy-7-((1-(3-methoxybenzyl)-1H-1,2,3-triazol-4-yl)methoxy)-4-methyl-2H-chromen-2-one]	164 ± 1.84 µM	95.8 ± 1.12	138.4 ± 1.02	
COc1cc(Cn2cc(COc3cc4oc(=O)cc(C)c4cc3OC)nn2)cc(OC)c1 [16b, 7-((1-(3,5-Dimethoxybenzyl)-1H-1,2,3-triazol-4-yl)methoxy)-6-methoxy-4-methyl-2H-chromen-2-one]	151 ± 5.05 µM	191.2 ± 1.13	9.06 ± 0.88	
COc1cc2c(C)cc(=O)oc2cc1OCc1cn(Cc2ccccc2C(F)(F)F)nn1 [16c, 6-Methoxy-4-methyl-7-((1-(2-(trifluoromethyl)benzyl)-1H-1,2,3-triazol-4-yl)methoxy)-2H-chromen-2-one]	141.7 ± 0.89 µM	57.5 ± 1.42	156.1 ± 1.42	
COc1cc2c(C)cc(=O)oc2cc1OCc1cn(Cc2ccccc2OC(F)(F)F)nn1 [16d, 6-Methoxy-4-methyl-7-((1-(2-(trifluoromethoxy)benzyl)-1H-1,2,3-triazol-4-yl)methoxy)-2H-chromen-2-one]	167 ± 2.45 µM	141 ± 0.6	167.6 ± 1.4	
COc1cccc(Cn2cc(COc3ccc4ccc(=O)oc4c3)nn2)c1 [19a, 7-((1-(3-Methoxybenzyl)-1H-1,2,3-triazol-4-yl)methoxy)-2H-chromen-2-one]	3.6 µM and 3.62 µM	2.8 ± 0.22	126 ± 3.92	
COc1cc(Cn2cc(COc3ccc4ccc(=O)oc4c3)nn2)cc(OC)c1 [19b, 7-((1-(3,5-Dimethoxybenzyl)-1H-1,2,3-triazol-4-yl)methoxy)-2H-chromen-2-one]	59.7 ± 0.62 µM	63.2 ± 2.44	132 ± 2.02	
O=c1ccc2ccc(OCc3cn(Cc4ccccc4C(F)(F)F)nn3)cc2o1 [19c, 7-((1-(2-(Trifluoromethyl)benzyl)-1H-1,2,3-triazol-4-yl)methoxy)-2H-chromen-2-one]	20.6 ± 0.95 µM	77.3 ± 6.38	17.7 ± 0.65	
O=c1ccc2ccc(OCc3cn(Cc4ccccc4OC(F)(F)F)nn3)cc2o1 [19d, 7-((1-(2-(Trifluoromethoxy)benzyl)-1H-1,2,3-triazol-4-yl)methoxy)-2H-chromen-2-one]	52.54 ± 0.4 µM	97.2 ± 1.29	172.8 ± 0.66	
O=c1cc(O)c2ccccc2o1 [compound 5, 4-hydroxycoumarin]	139 ± 1.85 µM	167 ± 5.63	169 ± 7.67	
Cc1cc(=O)oc2cc(O)c(O)cc12 [compound 11, 4-methyl-6,7-dihydroxycoumarin]	68.1 ± 4.05 µM	148 ± 5.46	105 ± 3.48	
COc1cc2c(C)cc(=O)oc2cc1O [compound 14, 7-Hydroxy-6-methoxy-4-methyl-2H-chromen-2-one]	89.1 ± 3.51 µM	146 ± 4.91	91.1 ± 2.41	
O=c1ccc2ccc(O)cc2o1 [compound 17, 7-hydroxycoumarin]			175 ± 4.37	
C[n+]1c2ccccc2cc2[n-]c3ccccc3c21 [cryptolepine, reference compound]	0.33 ± 0.2 µM	0.61 ± 0.3		
COc1cc(/C=C/C(=O)CC(=O)/C=C/c2ccc(O)c(OC)c2)ccc1O [curcumin, reference compound]				81
